{"source": "patent US11674952B2", "about": "“Embryonic cell-based therapeutic candidate screening systems, models for Huntington's Disease and uses thereof” (The Rockefeller University, priority 2016, dated 2023)", "system": "RUES2-Q150 cells", "assay": "Germ layer micropattern screen: BMP4-differentiated hESC colonies, reversion of the HD-dependent micropattern signature", "assay_type": "cell-based, human", "conditions": "kinetin 1 μM for 2-24 hours prior to BMP4 addition", "source_text": "Micropattern cultures were established according to methods described in Warmflash et al., Nature Methods. 2014 August: 11(8):847-854. This procedure is briefly described in Materials and Methods.\nCells confined to circular micropatterns and differentiated with BMP4 produce an ordered array of germ layers along the radial axis of the colony. This order results from self-organized signaling which confines response to the BMP4 to the colony border while inducing a broader gradient of Activin/Nodal signaling to pattern mesendodermal fates. Control of fates is established from the border of the colony so that as colony size is reduced the central fates are lost. Thus, given minimal geometric and signaling cues, hESCs will self-organize to generate embryonic patterns such as those of the human gastrula.\nThe Applicants next applied micropattern technology to the isogenic hESC lines for Huntington's Disease. […]\nThe spatial expression of germ markers Sox2, Bra, and Cdx2 was compared between RUES2 and RUES2-Q150 cells (FIG. 6). […] Tri dimensional geometry was evaluated by first generating images of cells at different focal planes known as “Z-stacks”. […]", "note": "Entries after “also recorded” stand apart in the source; their conditions may differ.", "data": [{"smiles": "c1coc(CNc2ncnc3[nH]cnc23)c1", "note": "[kinetin]", "values": [{"measurement": "rescue of HD-dependent micropattern signature (SOX2+ area; Sox2 and Bra/Cdx2 territories)", "result": "reduced or reverted HD-dependent micropattern signature; also recorded: restore the HD-dependent micropattern signature; also recorded: at least partially rescued; also recorded: partial but significant rescue of phenotype"}, {"measurement": "rescue of cell number phenotype (total number of cells per micropattern, cell density)", "result": "restored the cell density; also recorded: restored the cell number phenotype; also recorded: rescues the cell number phenotype"}]}]}
